Results from patent US9840467B2, “Arylhydrazides containing a 2-pyridone moiety as selective antibacterial agents” (ABAC THERAPEUTICS, S.L., priority 2014, dated 2017).
In brackets after ≈: the same amount, converted by molar mass.

Key:
[1] = tested on: K. pneumoniae; experiment: MIC, CLSI microtiter dilution, K. pneumoniae; assay type: cell-based, Klebsiella pneumoniae; conditions: Klebsiella pneumoniae, 24 h
Procedure: (§1) The products of the present invention were tested for their activity against A. baumannii as well as against the following bacteria: Staphylococcus aureus (S. aureus), Streptococcus pneumoniae (S. pneumoniae), Enterococcus faecium (E. faecium), Pseudomonas aeruginosa (P. aeruginosa), Klebsiella pneumoniae (K. pneumoniae.), Enterobacter aerogenes (E. aerogenes) and Escherichia coli (E. coli).
(§2) Minimal inhibitory concentrations (MICs) were determined using a standard microtiter dilution method, according to the Clinical and Laboratory Standards Institute (CLSI) procedures, in particular according to M07-A9: “Methods for Dilution Antimicrobial Susceptibility Tests for Bacteria That Grow Aerobically; Approved Standard—Ninth Edition”.
(§3) Briefly, compounds were dissolved with dimethyl sulfoxide (DMSO) at 12.8 mg/mL. Serial two-fold dilutions of compounds were performed in DMSO and 1 μl of each dilution were transferred into microtiter culture plates, followed by 100 μl of inoculated culture media to give a final microorganism concentration of 5×10^5 colony-forming units/mL. Plates were incubated at 37° C. for 24 hours and MICs determined as the lowest compound concentration that inhibited growth. Media used in determinations were Cation adjusted Mueller-Hinton Broth for all the microorganisms except for S. pneumoniae and E. faecium whose culture media were supplemented with 2.5% of lysed horse blood. Incubations were performed at air atmosphere except S. pneumoniae cultures that were incubated with 5% CO2 atmosphere.

[2] = tested on: E. faecium; experiment: MIC, CLSI microtiter dilution, E. faecium; assay type: cell-based, Enterococcus faecium; conditions: Enterococcus faecium, 24 h
Procedure: as §1, §2, §3

[3] = tested on: P. aeruginosa; experiment: MIC, CLSI microtiter dilution, P. aeruginosa; assay type: cell-based, Pseudomonas aeruginosa; conditions: Pseudomonas aeruginosa, 24 h
Procedure: as §1, §2, §3

[4] = tested on: E. coli; experiment: MIC, CLSI microtiter dilution, E. coli; assay type: cell-based, Escherichia coli; conditions: Escherichia coli, 24 h
Procedure: as §1, §2, §3

[5] = tested on: S. aureus; experiment: MIC, CLSI microtiter dilution, S. aureus; assay type: cell-based, Staphylococcus aureus; conditions: Staphylococcus aureus, 24 h
Procedure: as §1, §2, §3

[6] = tested on: A. baumannii; experiment: MIC, CLSI microtiter dilution, A. baumannii; assay type: cell-based, Acinetobacter baumannii; conditions: Acinetobacter baumannii, 24 h
Procedure: as §1, §2, §3

[7] = tested on: E. aerogenes; experiment: MIC, CLSI microtiter dilution, E. aerogenes; assay type: cell-based, Enterobacter aerogenes; conditions: Klebsiella aerogenes, 24 h
Procedure: as §1, §2, §3

[8] = tested on: S. pneumoniae; experiment: MIC, CLSI microtiter dilution, S. pneumoniae; assay type: cell-based, Streptococcus pneumoniae; conditions: Streptococcus pneumoniae, 24 h
Procedure: as §1, §2, §3

Row | SMILES | MIC [1] | MIC [2] | MIC [3] | MIC [4] | MIC [5] | MIC [6] | MIC [7] | MIC [8]
1 | CN(NC(=O)c1cccc(=O)n1C)c1ccc(F)cc1 [Ex. 20, 1-Methyl-6-oxo-1,6-dihydropyridine-2-carboxylic acid N′-(4-fluorophenyl)-N′-methyl-hydrazide] | > 128 µg/mL | > 128 µg/mL | > 128 µg/mL | > 128 µg/mL | > 128 µg/mL | 64 µg/mL (≈ 232 µM) | > 128 µg/mL | > 128 µg/mL
2 | Cn1c(C(=O)NNc2ccc(Cl)cc2)cccc1=O [Ex. 10, 1-Methyl-6-oxo-1,6-dihydropyridine-2-carboxylic acid N′-(4-chlorophenyl)-hydrazide] | > 128 µg/mL | > 128 µg/mL | > 128 µg/mL | > 128 µg/mL | > 128 µg/mL | 0.25 µg/mL (≈ 0.9 µM) | > 128 µg/mL | > 128 µg/mL
